Literature values in patent US20030171388A1, “Cosmetic or dermatological cream composition, the preparation and the use thereof” (priority 2003, published 2003).

Test system: liver cell cultures

## C[N+](C)(C)C[C@H](O)CC(=O)[O-] [L-carnitine, 3-carboxy-2-hydroxy-N,N,N-trimethyl-1-propanamium-hydroxide]
  effect on the membrane potential of the mitochondrion: did not cause a loss in the membrane potential of the mitochondrion
  prevention of cell deaths: able to prevent cell deaths
